Measurements from PubChem BioAssay (NCI).
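Where inhibition never reached the appropriate level, the endpoint shown equals the highest concentration tested. Otherwise, values were interpolated linearly from a five-concentration, 48-hour dose response in 96-well plates. GI50 marks 50% less growth. The concentration for full growth arrest is given as TGI.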

Legend:
Experiment in all cases: NCI-60 cell line screen, 48 h
[1] = tested on: 786-0 renal
[2] = tested on: A498 renal
[3] = tested on: A549 NSCLC
[4] = tested on: ACHN renal
[5] = tested on: BT-549 breast
[6] = tested on: CAKI-1 renal
[7] = tested on: CCRF-CEM leukemia
[8] = tested on: COLO 205 colon
[9] = tested on: DU-145 prostate
[10] = tested on: EKVX NSCLC
[11] = tested on: HCC-2998 colon
[12] = tested on: HCT-116 colon
[13] = tested on: HCT-15 colon
[14] = tested on: HL-60(TB) leukemia
[15] = tested on: HOP-62 NSCLC
[16] = tested on: HOP-92 NSCLC
[17] = tested on: HS 578T breast
[18] = tested on: HT29 colon
[19] = tested on: IGROV1 ovarian
[20] = tested on: K-562 leukemia
[21] = tested on: KM12 colon
[22] = tested on: LOX IMVI melanoma
[23] = tested on: M14 melanoma
[24] = tested on: MALME-3M melanoma
[25] = tested on: MCF7 breast
[26] = tested on: MDA-MB-231 breast
[27] = tested on: MDA-MB-435
[28] = tested on: MOLT-4 leukemia
[29] = tested on: NCI-H226 lung
[30] = tested on: NCI-H23 lung
[31] = tested on: NCI-H460 lung
[32] = tested on: NCI-H522 lung
[33] = tested on: NCI/ADR-RES ovarian
[34] = tested on: OVCAR-3 ovarian
[35] = tested on: OVCAR-4 ovarian
[36] = tested on: OVCAR-5 ovarian
[37] = tested on: OVCAR-8 ovarian
[38] = tested on: PC-3 prostate
[39] = tested on: RPMI-8226 leukemia
[40] = tested on: RXF 393 renal
[41] = tested on: SF-268 CNS
[42] = tested on: SF-295 CNS
[43] = tested on: SF-539 CNS
[44] = tested on: SK-MEL-2 melanoma
[45] = tested on: SK-MEL-28 melanoma
[46] = tested on: SK-MEL-5 melanoma
[47] = tested on: SK-OV-3 ovarian
[48] = tested on: SN12C renal
[49] = tested on: SNB-19 CNS
[50] = tested on: SNB-75 CNS
[51] = tested on: SR leukemia
[52] = tested on: SW-620 colon
[53] = tested on: T-47D breast
[54] = tested on: TK-10 renal
[55] = tested on: U251 CNS
[56] = tested on: UACC-257 melanoma
[57] = tested on: UACC-62 melanoma
[58] = tested on: UO-31 renal

COc1ccc(/C=C/C(=O)c2ccc(Nc3nc(Nc4ccc(F)cc4)nc(Nc4ccc(Cl)cc4)n3)cc2)cc1
GI50 [1]: > 100 µM | TGI [1]: > 100 µM | GI50 [2]: > 100 µM | TGI [2]: > 100 µM | GI50 [3]: > 100 µM | TGI [3]: > 100 µM | GI50 [4]: > 100 µM | TGI [4]: > 100 µM | GI50 [5]: > 100 µM | TGI [5]: > 100 µM | GI50 [6]: 69.6 µM | TGI [6]: > 100 µM | GI50 [7]: 37.4 µM | TGI [7]: > 100 µM | GI50 [8]: 24.2 µM | TGI [8]: > 100 µM | GI50 [9]: > 100 µM | TGI [9]: > 100 µM | GI50 [10]: > 100 µM | TGI [10]: > 100 µM | GI50 [11]: > 100 µM | TGI [11]: > 100 µM | GI50 [12]: 39.9 µM | TGI [12]: > 100 µM | GI50 [13]: 30.8 µM | TGI [13]: > 100 µM | GI50 [14]: 84 µM | TGI [14]: > 100 µM | GI50 [15]: > 100 µM | TGI [15]: > 100 µM | GI50 [16]: 31.1 µM | TGI [16]: 88.7 µM | GI50 [17]: 14.6 µM | TGI [17]: 52.3 µM | GI50 [18]: 29.6 µM | TGI [18]: > 100 µM | GI50 [19]: 17.7 µM | TGI [19]: > 100 µM | GI50 [20]: 15.4 µM | TGI [20]: > 100 µM | GI50 [21]: > 100 µM | TGI [21]: > 100 µM | GI50 [22]: > 100 µM | TGI [22]: > 100 µM | GI50 [23]: > 100 µM | TGI [23]: > 100 µM | GI50 [24]: > 100 µM | TGI [24]: > 100 µM | GI50 [25]: 0.292 µM | TGI [25]: 31.7 µM | GI50 [26]: 29.5 µM | TGI [26]: > 100 µM | GI50 [27]: > 100 µM | TGI [27]: > 100 µM | GI50 [28]: 11.9 µM | TGI [28]: > 100 µM | GI50 [29]: > 100 µM | TGI [29]: > 100 µM | GI50 [30]: > 100 µM | TGI [30]: > 100 µM | GI50 [31]: 9.91 µM | TGI [31]: 84.3 µM | GI50 [32]: 36.7 µM | TGI [32]: > 100 µM | GI50 [33]: > 100 µM | TGI [33]: > 100 µM | GI50 [34]: > 100 µM | TGI [34]: > 100 µM | GI50 [35]: > 100 µM | TGI [35]: > 100 µM | GI50 [36]: > 100 µM | TGI [36]: > 100 µM | GI50 [37]: > 100 µM | TGI [37]: > 100 µM | GI50 [38]: 30.6 µM | TGI [38]: > 100 µM | GI50 [39]: 6.91 µM | TGI [39]: > 100 µM | GI50 [40]: 13 µM | TGI [40]: > 100 µM | GI50 [41]: > 100 µM | TGI [41]: > 100 µM | GI50 [42]: > 100 µM | TGI [42]: > 100 µM | GI50 [43]: 2.23 µM | TGI [43]: 19 µM | GI50 [44]: 41.3 µM | TGI [44]: > 100 µM | GI50 [45]: > 100 µM | TGI [45]: > 100 µM | GI50 [46]: 1.03 µM | TGI [46]: 27.2 µM | GI50 [47]: > 100 µM | TGI [47]: > 100 µM | GI50 [48]: > 100 µM | TGI [48]: > 100 µM | GI50 [49]: > 100 µM | TGI [49]: > 100 µM | GI50 [50]: 16.2 µM | TGI [50]: 45.8 µM | GI50 [51]: 4.68 µM | TGI [51]: 38.2 µM | GI50 [52]: > 100 µM | TGI [52]: > 100 µM | GI50 [53]: 72.6 µM | TGI [53]: > 100 µM | GI50 [54]: > 100 µM | TGI [54]: > 100 µM | GI50 [55]: 49 µM | TGI [55]: > 100 µM | GI50 [56]: > 100 µM | TGI [56]: > 100 µM | GI50 [57]: > 100 µM | TGI [57]: > 100 µM | GI50 [58]: 56.9 µM | TGI [58]: > 100 µM

CN(CSc1ccc(Cl)cc1)c1ccc(CSc2ccc(Cl)cc2)cc1
GI50 [1]: 1.8 µM | TGI [1]: 11 µM | GI50 [2]: 1.59 µM | TGI [2]: 9.61 µM | GI50 [3]: 5.22 µM | TGI [3]: 34.4 µM | GI50 [4]: 6.28 µM | TGI [4]: 22.3 µM | GI50 [5]: 1.16 µM | TGI [5]: 3.6 µM | GI50 [6]: 2.32 µM | TGI [6]: 8.64 µM | GI50 [7]: 0.704 µM | TGI [7]: > 100 µM | GI50 [8]: 3.59 µM | TGI [8]: 13.6 µM | GI50 [9]: 6.69 µM | TGI [9]: 25.3 µM | GI50 [10]: 3.16 µM | TGI [10]: 16 µM | GI50 [11]: 4.81 µM | TGI [11]: 18.3 µM | GI50 [12]: 3.06 µM | TGI [12]: 11.9 µM | GI50 [13]: 5.18 µM | TGI [13]: 22.2 µM | GI50 [14]: 1.57 µM | TGI [14]: 32 µM | GI50 [15]: 13.6 µM | TGI [15]: 29.9 µM | GI50 [16]: 3.56 µM | TGI [16]: 16.9 µM | GI50 [17]: 3.7 µM | TGI [17]: 21.1 µM | GI50 [18]: 12.2 µM | TGI [18]: 34.2 µM | GI50 [20]: 6.64 µM | TGI [20]: > 100 µM | GI50 [21]: 3.24 µM | TGI [21]: 15.1 µM | GI50 [22]: 1.63 µM | TGI [22]: 6.32 µM | GI50 [23]: 4.09 µM | TGI [23]: 14.9 µM | GI50 [24]: 12 µM | TGI [24]: 33.1 µM | GI50 [25]: 3.17 µM | TGI [25]: 18.5 µM | GI50 [26]: 1.8 µM | TGI [26]: 5.9 µM | GI50 [27]: 2.68 µM | TGI [27]: 11.9 µM | GI50 [28]: 2.66 µM | TGI [28]: > 100 µM | GI50 [29]: 2.16 µM | TGI [29]: 6.67 µM | GI50 [30]: 4.24 µM | TGI [30]: 19.5 µM | GI50 [31]: 3.65 µM | TGI [31]: 15.6 µM | GI50 [32]: 1.19 µM | TGI [32]: 6.88 µM | GI50 [33]: 8 µM | TGI [33]: 30.1 µM | GI50 [34]: 1.97 µM | TGI [34]: 5.17 µM | GI50 [35]: 3.15 µM | TGI [35]: 20 µM | GI50 [36]: 13.5 µM | TGI [36]: 34.5 µM | GI50 [37]: 13.6 µM | TGI [37]: 39.8 µM | GI50 [38]: 3.27 µM | TGI [38]: 25.8 µM | GI50 [39]: 2.11 µM | TGI [39]: > 100 µM | GI50 [40]: 8.28 µM | TGI [40]: 23.6 µM | GI50 [41]: 1.46 µM | TGI [41]: 10.4 µM | GI50 [42]: 2.86 µM | TGI [42]: 13.7 µM | GI50 [43]: 2.35 µM | TGI [43]: 6.48 µM | GI50 [44]: 14.2 µM | TGI [44]: 36.2 µM | GI50 [45]: 5.55 µM | TGI [45]: 19.6 µM | GI50 [46]: 6.85 µM | TGI [46]: 19.8 µM | GI50 [47]: 7.9 µM | TGI [47]: 23.4 µM | GI50 [48]: 1.82 µM | TGI [48]: 15.9 µM | GI50 [49]: 9.14 µM | TGI [49]: 23.2 µM | GI50 [50]: 2.93 µM | TGI [50]: 16.1 µM | GI50 [51]: 1.77 µM | TGI [51]: 7.58 µM | GI50 [52]: 3.96 µM | TGI [52]: 15.9 µM | GI50 [53]: 4.22 µM | TGI [53]: 72 µM | GI50 [54]: 11.5 µM | TGI [54]: 31.7 µM | GI50 [55]: 6.87 µM | TGI [55]: 23.5 µM | GI50 [56]: 10.3 µM | TGI [56]: 34.8 µM | GI50 [57]: 3.82 µM | TGI [57]: 15.8 µM | GI50 [58]: 1.06 µM | TGI [58]: 4.18 µM
